# Measurements reported in US20070054841A1, “Method of treatment of systemic injury secondary to burns” (The University of Queensland, priority 2003, published 2007).
# Entries after “also recorded” stand apart in the source; their conditions may differ.
# Experiments:
# [1] = PMX53 concentration remaining after incubation with Acticoat dressing (HPLC); format: physicochemical; settings: throughout the experiment (up to 7 days, 37° C.)
# Protocol: (§1) Uniformly sized segments of the Acticoat dressing (10 mm diameter) were incubated in 7 ml PMX53 solution (1.0 mM in sterile water) or sterile water alone at 37° C. for periods of up to 7 days. The segments were then removed and examined using scanning electron microscopy to determine if the silver coating was affected.
# An analysis of the concentration of PMX53 remaining in the incubation solutions was performed by high performance liquid chromatography to ascertain if the concentration of PMX53 remained constant throughout the incubation period. PMX53 solution was incubated at 37° C. without a dressing to act as a control.
# [2] = Interaction with silver coated Acticoat dressing: silver ion leaching and surface by scanning electron microscopy; format: physicochemical
# Protocol: as §1
# A quantitative assessment of the effect of PMX53 on silver ion leaching was performed by determining the concentration of silver ions in each solution after the incubation described above for 1, 3, 5 and 7 days. Silver ion determination was performed using a Spectroflame model P ICPAES instrument.
# [3] = test system: rats with full thickness skin burn; assay: Rat thermal skin burn (30%): bronchoalveolar lavage cell number and lung myeloperoxidase; format: in vivo, Female Wistar rats; settings: 10 mg/kg SC pretreatment, 4 hours after burn injury, versus untreated burned animals
# Protocol: A separate series of experiments was performed in the same way to determine myeloperoxidase (MPO) levels in the lung. In this experiment the groups were as follows: Immediately after the 4 hr monitoring period following the burn the lungs were flushed with 10 ml of saline via the pulmonary artery. Bronchoalveolar lavage (BAL) fluid was collected by an irrigation of 1 ml of saline at 37° C. into the lung once through the trachea and the total number of cells present in the lavage fluid was determined. Approximately 50% of the left lung was weighed, then homogenized in 1 ml solution of 0.05% sodium azide in 0.1M PBS (pH 6.4), and then sonicated and centrifuged. The MPO levels in the supernatants of lungs were determined using a tissue MPO assay, and the results were calculated as absorbance/tissue weight (g). Samples of affected skin, lung, liver and kidney were collected for histopathology.
# [4] = test system: T-cell dependent antigen responses; settings: rat, in vivo, po, 100 mg/kg/day
# granulocytes = settings: cynomolgus monkey, in vivo, po, 100 mg/kg/day
# [5] = test system: rats with second degree burns; format: in vivo, Female Wistar rats; settings: topical 400 μg/spot immediately after burn; 6 hours after burn
# Protocol: The inhibitory effect of topically applied PMX53 on neutrophil infiltration following a burn was examined after a 6 hour period. In order to verify any effect of PMX53 on the immune system, immunoglobulin […] (IgG) levels were examined. IgM levels can be examined using similar methods. Female Wistar rats of body weight about 250 grams were used in this study. A total of nine rats were used in the experiments, divided into 3 groups of 3 animals each: Both sides of the anaesthetized rat body was shaved. […] Skin samples were collected for histopathology. The change in circulating IgG levels following the administration of PMX53 are illustrated in FIG. 7. IgG levels in plasma were measured using an ELISA assay. IgM levels may also may be determined using conventional ELISA techniques. There was no suppression of IgG over the 6 hr period after burns to 15% of the rat skin surface area (n=3). […] The 6 hr period may be too short for the systemic reaction to the burns to be detectable.
# [6] = test system: rats with full thickness skin burn; assay: Rat thermal skin burn (30% of skin area): Evans Blue leakage and macroscopic appearance of lung; format: in vivo, Female Wistar rats
# Protocol: Female Wistar rats of body weight 250-300 grams were used in this study. The rats were divided into three groups: PMX53 treatment involved a subcutaneous injection of PMX53 in distilled water at a dose of 10 mg/kg 30 minutes before the burn. With the rats under deep anaesthesia, a closely-clipped area of skin on the back equivalent to 30% of total skin area was exposed to water at a temperature of 75° C. for 30 seconds. […] To prevent rapid death from the burn, rats were immediately treated with an intraperitoneal infusion of 8-10 ml normal saline. At the same time Evans Blue (EB) at a concentration of 20 mg/kg was injected via the femoral vein. The rats were then kept on a heating pad to maintain normal body temperature, and monitored for 4 hours. Anaesthetic was topped up as required. At the end of the experiment, 1-2 ml of blood was taken and the serum/plasma stored at −20° C., for subsequent assay of serum TNF-α levels. The leakage of EB/albumin from the blood vessels into the subcutaneous tissue was estimated by examining photographs of skin samples.
# [7] = in vivo
smiles,measurement,setting,value
"CC(=O)N[C@@H](Cc1ccccc1)C(=O)N[C@H]1CCCNC(=O)[C@H](CCCNC(=N)N)NC(=O)[C@H](Cc2c[nH]c3ccccc23)NC(=O)[C@@H](CC2CCCCC2)NC(=O)[C@@H]2CCCN2C1=O [PMX53, AcPhe[Orn-Pro-D-Cyclohexylalanine-Trp-Arg]]",concentration of PMX53 incubated with Acticoat dressing compared to control PMX53 solution,[1],did not change
same,changes at the surface of Acticoat dressing segments (scanning electron microscopy),"[2]; 7 days incubation with PMX53, magnification of 2000",no apparent changes
same,factor of increase in leaching of silver ions from Acticoat dressing,"[2]; PMX53 1 mM, after 1 day of incubation at 37° C.",2.5
same,total number of cells in bronchoalveolar lavage fluid,[3],"cell numbers approaching those found in the sham-operated, unburned animals"
same,total number of cells in bronchoalveolar lavage fluid,[3]; listed as PMX35,dramatically less
same,T-cell dependent antigen responses,[4],did not attenuate or increase
same,phagocytosis or oxidative burst functions of granulocytes,granulocytes,did not detectably impair
same,neutrophil recruitment in burned skin (histology),[5],less neutrophil recruitment
same,structural damage of burned skin (histology),[5],same structural damage as burned skin
same,degree of EB infiltration in the subcutaneous tissues,"[6]; 10 mg/kg SC 30 minutes before burn, 4 hours after burning, drug-treated versus untreated burned rats",no appreciable difference
same,"leakage of Evans Blue (plasma) into burnt skin, blue staining and thickening","[6]; 10 mg/kg SC 30 minutes before burn, compared to burn-only group",less blue staining and less thickening; also recorded: markedly less plasma leakage into the skin
same,"macroscopic appearance of the lung (EB staining, consolidation)","[6]; 10 mg/kg SC pretreatment, 4 hours after burn",colour and texture similar to those of the normal lungs; also recorded: appear normal
same,penetration through normal rat skin,[7],0.16 %/cm^2
same,systemic level of the drug after topical administration compared with other routes,[7]; rat,lower systemic level
